In ChEMBL document CHEMBL5537169, “Structure-Activity Relationships and Discovery of (S)-6-Isopropyl-2-methoxy-3-(3-methoxypropoxy)-10-oxo-5,10-dihydro-6H-pyrido[1,2-h][1,7]naphthyridine-9-carboxylic Acid (AB-452), a Novel Orally Available HBV RNA Destabilizer” (J Med Chem, 2024):
In brackets after ≈: the same amount, converted by molar mass.

How the values were obtained:
Hepatitis B virus = assay: Antiviral activity against HBV infected in human HepG2.2.15 cells assessed as inhibition of HBsAg level incubated for 6 days by microplate-based chemiluminescence immunoassay; assay type: functional, organism-based; settings: HepG2 2.2.15, 144 h
[1] = Clearance in CD-1 mouse liver microsomes at 0.3 uM pre-incubated for 10 mins followed by NADPH addition incubated for 60 mins by LC-MS/MS analysis; assay type: ADME, Microsome; settings: time 70 min, read-out: CLH
[2] = Clearance in CD-1 mouse at 2 mg/kg,iv measured at 0.083 to 24 hrs post administration by LC-MS/MS analysis; assay type: ADME, organism-based; settings: in vivo, time 0.083-24 hrs
[3] = Half life in CD-1 mouse at 10 mg/kg,po measured at 0.083 to 24 hrs post administration by LC-MS/MS analysis; assay type: ADME, organism-based; settings: in vivo, time 0.083-24 hrs
[4] = Cmax in CD-1 mouse at 10 mg/kg,po measured at 0.083 to 24 hrs post administration by LC-MS/MS analysis; assay type: ADME, organism-based; settings: in vivo, time 0.083-24 hrs
[5] = AUCinfinity in CD-1 mouse at 10 mg/kg,po measured at 0.083 to 24 hrs post administration by LC-MS/MS analysis; assay type: ADME, organism-based; settings: in vivo, time 0.083-24 hrs
[6] = Oral bioavailability in CD-1 mouse at 10 mg/kg measured at 0.083 to 24 hrs by LC-MS/MS analysis; assay type: ADME, organism-based; settings: in vivo, time 0.083-24 hrs
[7] = Half life in Sprague-Dawley rat at 10 mg/kg,po measured at 0.083 to 24 hrs post administration by LC-MS/MS analysis; assay type: ADME, organism-based; settings: Sprague-Dawley, in vivo, time 0.083-24 hrs
[8] = AUCinfinity in Sprague-Dawley rat at 10 mg/kg,po measured at 0.083 to 24 hrs post administration by LC-MS/MS analysis; assay type: ADME, organism-based; settings: in vivo, time 0.083-24 hrs; for AUC(0-inf): Sprague-Dawley
[9] = Oral bioavailability in Sprague-Dawley rat at 10 mg/kg measured at 0.083 to 24 hrs by LC-MS/MS analysis; assay type: ADME, organism-based; settings: in vivo, time 0.083-24 hrs; for bioavailability: Sprague-Dawley
[10] = Kinetic solubility of compound in PBS at pH 7.4 incubated for 24 hrs by UPLC-UV analysis; assay type: physicochemical; settings: read-out: Kinetic_solubility
Cytochrome P450 1A2 = target: T1, Cytochrome P450 1A2 (Homo sapiens, UniProt P05177); assay: Reversible inhibition of CYP1A2 in human liver microsomes using phenacetin as substrate pre-incubated for 30 mins followed by NADPH addition and measured after 10 mins by LC-MS/MS analysis; assay type: ADME, Microsome
T1 sequence (P05177 whole entry): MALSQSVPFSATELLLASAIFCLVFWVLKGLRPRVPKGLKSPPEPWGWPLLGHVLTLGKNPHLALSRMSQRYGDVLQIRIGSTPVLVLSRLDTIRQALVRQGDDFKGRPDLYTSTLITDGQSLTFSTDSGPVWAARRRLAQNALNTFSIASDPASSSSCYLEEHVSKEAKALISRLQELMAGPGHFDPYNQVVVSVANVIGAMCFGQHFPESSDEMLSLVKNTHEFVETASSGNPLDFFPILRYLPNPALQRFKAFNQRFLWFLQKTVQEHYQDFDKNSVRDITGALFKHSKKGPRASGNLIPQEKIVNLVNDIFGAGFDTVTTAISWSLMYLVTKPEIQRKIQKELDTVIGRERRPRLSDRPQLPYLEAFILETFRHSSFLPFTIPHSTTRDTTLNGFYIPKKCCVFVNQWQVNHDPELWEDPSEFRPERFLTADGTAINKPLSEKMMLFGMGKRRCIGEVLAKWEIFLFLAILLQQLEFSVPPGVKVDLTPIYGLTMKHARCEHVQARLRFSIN

Cytochrome P450 2B6 = target: T2, Cytochrome P450 2B6 (Homo sapiens, UniProt P20813); assay: Reversible inhibition of CYP2B6 in human liver microsomes using bupropion as substrate pre-incubated for 30 mins followed by NADPH addition and measured after 10 mins by LC-MS/MS analysis; assay type: ADME, Microsome
T2 sequence (P20813 whole entry): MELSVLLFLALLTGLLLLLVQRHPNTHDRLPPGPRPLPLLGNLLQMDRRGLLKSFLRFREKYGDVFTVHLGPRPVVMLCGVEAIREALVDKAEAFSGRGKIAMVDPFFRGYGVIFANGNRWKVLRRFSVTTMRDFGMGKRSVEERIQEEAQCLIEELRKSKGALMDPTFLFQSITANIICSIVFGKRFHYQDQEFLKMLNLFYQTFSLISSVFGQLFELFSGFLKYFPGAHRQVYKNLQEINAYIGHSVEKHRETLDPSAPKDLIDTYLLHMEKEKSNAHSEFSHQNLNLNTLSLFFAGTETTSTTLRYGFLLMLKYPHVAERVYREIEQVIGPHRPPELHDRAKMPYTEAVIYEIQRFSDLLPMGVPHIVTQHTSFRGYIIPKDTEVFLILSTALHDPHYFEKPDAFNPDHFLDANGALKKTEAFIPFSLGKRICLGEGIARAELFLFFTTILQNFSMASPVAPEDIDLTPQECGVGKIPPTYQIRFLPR

Cytochrome P450 2C19 = Cytochrome P450 2C19 (Homo sapiens, UniProt P33261); assay: Reversible inhibition of CYP2C19 in human liver microsomes using S-mephenytoin as substrate pre-incubated for 30 mins followed by NADPH addition and measured after 10 mins by LC-MS/MS analysis; assay type: ADME, Microsome
[11] = Protein binding in human plasma assessed as fraction unbound at 2 uM incubated for 6 hrs by equilibrium dialysis based LC-MS/MS analysis; assay type: ADME, cell-free
[12] = Protein binding in mouse plasma assessed as fraction unbound at 2 uM incubated for 6 hrs by equilibrium dialysis based LC-MS/MS analysis; assay type: ADME, cell-free
[13] = Apparent volume of distribution at steady state in Beagle dog at 2 mg/kg,iv measured at 0.083 to 24 hrs post administration by LC-MS/MS analysis; assay type: ADME, organism-based, Canis lupus familiaris; settings: in vivo, time 0.083-24 hrs; for Vd: Beagle, read-out: Vdss(app)
[14] = Half life in Beagle dog at 2 mg/kg,iv measured at 0.083 to 24 hrs post administration by LC-MS/MS analysis; assay type: ADME, organism-based, Canis lupus familiaris; settings: in vivo, time 0.083-24 hrs; for half-life: Beagle
[15] = AUCinfinity in Beagle dog at 2 mg/kg,iv measured at 0.083 to 24 hrs post administration by LC-MS/MS analysis; assay type: ADME, organism-based, Canis lupus familiaris; settings: in vivo, time 0.083-24 hrs; for AUC(0-inf): Beagle
[16] = Half life in Beagle dog at 10 mg/kg,po measured at 0.083 to 24 hrs post administration by LC-MS/MS analysis; assay type: ADME, organism-based, Canis lupus familiaris; settings: in vivo, time 0.083-24 hrs
[17] = Cmax in Beagle dog at 10 mg/kg,po measured at 0.083 to 24 hrs post administration by LC-MS/MS analysis; assay type: ADME, organism-based, Canis lupus familiaris; settings: in vivo, time 0.083-24 hrs
[18] = AUCinfinity in Beagle dog at 10 mg/kg,po measured at 0.083 to 24 hrs post administration by LC-MS/MS analysis; assay type: ADME, organism-based, Canis lupus familiaris; settings: in vivo, time 0.083-24 hrs
[19] = Oral bioavailability in Beagle dog at 10 mg/kg measured at 0.083 to 24 hrs by LC-MS/MS analysis; assay type: ADME, organism-based, Canis lupus familiaris; settings: in vivo, time 0.083-24 hrs
[20] = Drug accumulation in Beagle dog plasma assessed as fold change in drug uptake at 10 mg/kg,po measured at 0.083 to 24 hrs post administration by LC-MS/MS analysis; assay type: ADME, organism-based, Canis lupus familiaris; settings: in vivo, time 0.083-24 hrs
[21] = Cardiotoxicity in Langendorff-perfused New Zealand White rabbit heart assessed as decrease in left ventricular contractility at 10 uM incubated for 45 mins by ECG analysis; assay type: toxicity, tissue-based, Oryctolagus cuniculus; parameters: scale not given: the % may be the effect or the level left; settings: 0.75 h

Chain of Cytochrome P450 2C19 (P33261 whole entry): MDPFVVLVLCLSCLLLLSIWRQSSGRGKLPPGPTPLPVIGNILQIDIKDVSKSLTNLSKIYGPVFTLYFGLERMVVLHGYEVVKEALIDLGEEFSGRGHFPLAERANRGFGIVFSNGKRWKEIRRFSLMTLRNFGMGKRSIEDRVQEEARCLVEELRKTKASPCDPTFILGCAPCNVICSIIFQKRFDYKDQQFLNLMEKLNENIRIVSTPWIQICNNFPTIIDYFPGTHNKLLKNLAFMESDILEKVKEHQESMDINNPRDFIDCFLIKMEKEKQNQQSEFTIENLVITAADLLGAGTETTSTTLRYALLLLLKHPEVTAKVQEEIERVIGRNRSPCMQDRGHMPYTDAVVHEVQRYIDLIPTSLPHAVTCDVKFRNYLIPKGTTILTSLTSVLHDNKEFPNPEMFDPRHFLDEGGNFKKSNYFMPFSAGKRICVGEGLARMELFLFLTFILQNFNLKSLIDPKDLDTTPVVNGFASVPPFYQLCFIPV

| Structure (SMILES) | EC50 (Hepatitis B virus) [µM] | microsomal CLint at 0.3 µM [1] [µL/min/mg] | clearance [2] [mL/min/kg] | half-life [3] [h] | Cmax [4] [ng/mL] | AUC(0-inf) [5] [ng·h/mL] | bioavailability [6] [%] | half-life [7] [h] | solubility kinetic at 24 h [10] [µM] | IC50 (Cytochrome P450 1A2) [µM] | IC50 (Cytochrome P450 2B6) [µM] | IC50 (Cytochrome P450 2C19) [µM] | fraction unbound at 6 h, 2 µM [11] | fraction unbound at 6 h, 2 µM [12] | half-life [16] [h] | Cmax [17] [ng/mL] | AUC(0-inf) [18] [ng·h/mL] | bioavailability [19] [%] | fold change (FC) [20] | Activity [21] | further results |
| --- | --- | --- | --- | --- | --- | --- | --- | --- | --- | --- | --- | --- | --- | --- | --- | --- | --- | --- | --- | --- | --- |
| COCCCOc1cc2c(cc1OC)-c1cc(=O)c(C(=O)O)cn1[C@H](C(C)C)C2 | 0.0012 | 5 | 26 | 2 | 1840 | 6150 | 96 | 3.4 | 190 (≈ 76.3 µg/mL) | > 25 | > 25 | > 25 | 0.44 | 0.5 | 1.6 | 4030 | 13000 | 110 | 0.6 | 20% | AUC(0-inf) [8]: 6720 ng·h/mL; bioavailability [9]: 28%; Vdss(app) ([13]; iv, 2 mg/kg): 1.7 L/kg; t1/2 ([14]; iv, 2 mg/kg): 1.5 h; AUC ([15]; iv, 2 mg/kg): 2362 ng·h/mL |
| COCCCOc1cc2c(nc1OC)-c1cc(=O)c(C(=O)O)cn1[C@H](C(C)C)C2 | 0.001 | 2 | 30 | 5.8 | 1110 | 5680 | 99 | 3.4 | > 200 | > 25 | > 25 | > 25 | 0.5 | 0.46 | 2.8 | 6740 | 31500 | 98 | 7.5 | Non-Toxic | AUC(0-inf) [8]: 14100 ng·h/mL; bioavailability [9]: 80%; Vd [13]: 0.8 L/kg; half-life [14]: 2.3 h; AUC(0-inf) [15]: 6410 ng·h/mL |
| COCCCOc1cc2c(cc1Cl)-c1cc(=O)c(C(=O)O)cn1[C@H](C(C)C)CO2 | 0.012 | 5 | 20 | 1.2 | 702 | 5880 | 63 | 2.8 | > 200 | > 25 | > 25 | > 25 | 0.14 | 0.2 | 1.7 | 3130 | 10700 | 63 | < 0.1 | 20% | AUC ([8]; po, 10 mg/kg): 10300 ng·h/mL; F ([9]; po, 10 mg/kg): 14%; Vd [13]: 1 L/kg; half-life [14]: 1.4 h; AUC(0-inf) [15]: 3370 ng·h/mL |
